# Measured values from ChEMBL document CHEMBL4382283, “Discovery of a GPR40 Superagonist: The Impact of Aryl Propionic Acid α-Fluorination” (ACS Med Chem Lett, 2019).
# Calls of active or inactive are those of the source. No cut-off for these calls is given here.
# Tests used:
# Mus musculus [1] = experiment: Antiobesity activity in diet-induced obese C57BL/6J mouse assessed as body weight loss at 0.3 mg/kg, po once daily for 14 days measured on day 15 (reference value: 3.74 +/- 0.6%); format: functional
# Mus musculus [2] = experiment: Antidiabetic activity in diet-induced obese mouse assessed as reduction in blood glucose excursion administered orally 45 mins prior to glucose challenge and measured up to 120 mins by OGTT; format: functional
# [3] = target: Voltage-gated inwardly rectifying potassium channel KCNH2 (Homo sapiens, UniProt Q12809); experiment: Inhibition of human ERG
# Voltage-gated inwardly rectifying potassium channel KCNH2, sequence (Q12809 whole entry): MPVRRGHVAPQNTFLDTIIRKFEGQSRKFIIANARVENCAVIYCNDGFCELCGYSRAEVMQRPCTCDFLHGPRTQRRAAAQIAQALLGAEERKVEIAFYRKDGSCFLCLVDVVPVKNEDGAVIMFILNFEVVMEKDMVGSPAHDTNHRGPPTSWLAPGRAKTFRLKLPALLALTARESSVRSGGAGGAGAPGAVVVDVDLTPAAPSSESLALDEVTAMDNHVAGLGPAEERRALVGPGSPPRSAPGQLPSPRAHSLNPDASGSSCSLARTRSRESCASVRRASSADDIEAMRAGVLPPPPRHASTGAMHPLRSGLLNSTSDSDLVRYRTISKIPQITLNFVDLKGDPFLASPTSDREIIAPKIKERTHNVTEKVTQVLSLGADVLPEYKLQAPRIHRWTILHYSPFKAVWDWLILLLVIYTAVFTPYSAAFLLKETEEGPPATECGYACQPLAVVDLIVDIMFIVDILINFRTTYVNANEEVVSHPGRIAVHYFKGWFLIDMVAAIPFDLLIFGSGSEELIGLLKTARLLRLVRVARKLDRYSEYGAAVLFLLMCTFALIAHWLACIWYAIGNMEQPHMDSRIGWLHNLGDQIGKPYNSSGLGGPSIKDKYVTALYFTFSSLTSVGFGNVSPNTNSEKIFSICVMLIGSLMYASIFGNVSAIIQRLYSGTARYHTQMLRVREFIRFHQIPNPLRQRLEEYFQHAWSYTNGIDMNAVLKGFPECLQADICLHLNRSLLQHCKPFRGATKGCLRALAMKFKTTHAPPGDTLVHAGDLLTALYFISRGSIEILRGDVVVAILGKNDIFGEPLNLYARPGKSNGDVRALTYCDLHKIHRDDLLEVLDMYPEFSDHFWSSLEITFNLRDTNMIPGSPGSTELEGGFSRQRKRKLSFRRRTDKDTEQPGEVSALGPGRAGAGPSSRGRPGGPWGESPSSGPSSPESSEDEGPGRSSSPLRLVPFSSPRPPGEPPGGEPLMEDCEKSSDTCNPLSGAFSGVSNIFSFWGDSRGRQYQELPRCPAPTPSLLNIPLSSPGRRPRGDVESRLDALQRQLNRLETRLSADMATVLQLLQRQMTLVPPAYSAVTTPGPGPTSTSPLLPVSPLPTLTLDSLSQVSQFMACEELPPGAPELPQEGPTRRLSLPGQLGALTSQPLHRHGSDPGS
# [4] = Cmax in Sprague-Dawley rat at 10 mg/kg, po by LC-MS/MS analysis; format: ADME, organism-based; parameters: dose 10 mg/kg, route oral; conditions: in vivo
# [5] = target: T1, Free fatty acid receptor 1 (Homo sapiens, UniProt O14842); experiment: Agonist activity at human GPR40 expressed in CHOK1 cells assessed as induction of Galphaq-mediated IP1 accumulation after 90 mins HTRF assay; format: functional, cell-based
# T1 sequence (O14842 whole entry): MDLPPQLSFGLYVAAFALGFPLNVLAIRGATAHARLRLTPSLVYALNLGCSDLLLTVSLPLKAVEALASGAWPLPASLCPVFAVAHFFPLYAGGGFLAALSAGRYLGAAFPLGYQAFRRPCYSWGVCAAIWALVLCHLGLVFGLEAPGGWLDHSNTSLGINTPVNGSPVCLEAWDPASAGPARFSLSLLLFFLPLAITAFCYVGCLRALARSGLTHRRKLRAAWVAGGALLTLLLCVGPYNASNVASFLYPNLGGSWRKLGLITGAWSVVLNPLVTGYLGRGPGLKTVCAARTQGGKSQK
# [6] = target: T1, Free fatty acid receptor 1; experiment: Positive allosteric modulation of human GPR40 expressed in CHOK1 cells assessed as increase in [3H]-(S)-3-Cyclopropyl-3-(3-(((1r,4S)-4-(2-fluoro-5-methoxyphenyl)cyclohexyl)methoxy)phenyl)propanoic acid binding after 60 mins by TopCount method; format: cell-based
# [7] = Protein binding in human plasma at 10 uM after 6 hrs by equilibrium dialysis method; format: ADME, cell-free; conditions: read-out: PPB
# Mus musculus [8] = experiment: Antiobesity activity in diet-induced obese C57BL/6J mouse assessed as body weight loss administered orally once daily for 14 days; format: functional, organism-based
# [9] = target: T1, Free fatty acid receptor 1
# Description: Displacement of [3H]AM-1638 from human GPR40 expressed in CHOK1 cells assessed as dissociation half life after 40 mins by TopCount method
# [10] = Half life in Sprague-Dawley rat at 2 mg/kg, iv by LC-MS/MS analysis; format: ADME, organism-based; conditions: in vivo
# [11] = Plasma concentration in diet-induced obese mouse at 0.1 mg/kg, po; format: ADME, organism-based; conditions: in vivo
# [12] = target: T1, Free fatty acid receptor 1; remark: listed apart in the source
# Description: Displacement of [3H]AM-1638 from human GPR40 expressed in CHOK1 cells assessed as association half life after 60 mins by TopCount method
# [13] = Half life in Sprague-Dawley rat at 10 mg/kg, po by LC-MS/MS analysis; format: ADME, organism-based; conditions: in vivo
# [14] = Plasma concentration in diet-induced obese mouse at 3 mg/kg, po; format: ADME, organism-based; conditions: in vivo
# [15] = Drug metabolism in human hepatocytes at 10 uM after 2 hr by LC-MS analysis; format: ADME, cell-based, Hepatocyte
# Cytochrome P450 [16] = experiment: Induction of CYP450 in human liver microsomes at 10 uM after 0.5 hrs by LC-MS/MS analysis; format: ADME
# [17] = Oral bioavailability in Sprague-Dawley rat at 10 mg/kg by LC-MS/MS analysis; format: ADME, organism-based; conditions: in vivo
# [18] = target: T1, Free fatty acid receptor 1; experiment: Agonist activity at human GPR40 expressed in HEK293 cells assessed as induction of intracellular calcium mobilization by Fluo-8 dye based FLIPR assay; format: functional, cell-based
# [19] = Plasma concentration in diet-induced obese C57BL/6J mouse at 3 mg/kg, po once daily for 14 days measured 24 hrs post last dose; format: ADME, organism-based
# [20] = Plasma concentration in diet-induced obese mouse at 10 mg/kg, po; format: ADME, organism-based; conditions: in vivo
# Cytochrome P450 [21] = experiment: Inhibition of CYP450 in human liver microsomes at 10 uM after 0.5 hrs by LC-MS/MS analysis; format: ADME
# [22] = Metabolic stability in human hepatocytes assessed as parent compound remaining at 10 uM after 2 hr by LC-MS analysis; format: ADME, cell-based, Hepatocyte
# [23] = Volume of distribution at steady state in Sprague-Dawley rat at 10 mg/kg, po or 2 mg/kg, iv by LC-MS/MS analysis; format: ADME, organism-based; conditions: in vivo, read-out: Vdss
# [24] = target: Free fatty acid receptor 1 (Rattus norvegicus, UniProt Q8K3T4); experiment: Agonist activity at rat GPR40 expressed in HEK293 cells assessed as induction of intracellular calcium mobilization by Fluo-8 dye based FLIPR assay; format: functional, cell-based
# Free fatty acid receptor 1 (Rattus norvegicus, UniProt Q8K3T4), sequence (Q8K3T4 whole entry): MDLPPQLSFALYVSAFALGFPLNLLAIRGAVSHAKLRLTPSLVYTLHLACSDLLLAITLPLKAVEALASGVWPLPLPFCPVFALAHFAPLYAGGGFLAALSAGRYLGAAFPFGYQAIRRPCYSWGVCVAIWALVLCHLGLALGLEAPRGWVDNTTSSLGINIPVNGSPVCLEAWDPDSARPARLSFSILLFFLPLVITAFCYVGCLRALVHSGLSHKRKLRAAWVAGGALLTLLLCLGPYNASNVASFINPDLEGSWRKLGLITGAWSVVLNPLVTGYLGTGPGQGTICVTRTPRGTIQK
# Mus musculus [25] = experiment: Antiobesity activity in diet-induced obese C57BL/6J mouse assessed as body weight loss at 30 mg/kg, po once daily for 14 days measured on day 15 (reference value: 3.74 +/- 0.6%); format: functional
# [26] = Plasma concentration in diet-induced obese C57BL/6J mouse at 1 mg/kg, po once daily for 14 days measured 24 hrs post last dose; format: ADME, organism-based
# [27] = Plasma concentration in diet-induced obese mouse at 0.3 mg/kg, po; format: ADME, organism-based; conditions: in vivo
# [28] = target: T1, Free fatty acid receptor 1; experiment: Full agonist activity at human GPR40 expressed in CHOK1 cells assessed as induction of GalphaS-mediated cAMP accumulation after 30 mins HTRF assay; format: functional, cell-based
# Mus musculus [29] = experiment: Antiobesity activity in diet-induced obese C57BL/6J mouse assessed as reduction in cumulative food intake administered orally once daily for 14 days; format: functional, organism-based
# Mus musculus [30] = experiment: Antiobesity activity in diet-induced obese C57BL/6J mouse assessed as body weight loss at 1 mg/kg, po once daily for 14 days measured on day 15 (reference value: 3.74 +/- 0.6%); format: functional
# [31] = Plasma concentration in diet-induced obese mouse at 0.03 mg/kg, po; format: ADME, organism-based; conditions: in vivo
# [32] = Clearance in Sprague-Dawley rat at 10 mg/kg, po or 2 mg/kg, iv by LC-MS/MS analysis; format: ADME, organism-based; conditions: in vivo
# [33] = Plasma concentration in diet-induced obese C57BL/6J mouse at 30 mg/kg, po once daily for 14 days measured 24 hrs post last dose; format: ADME, organism-based
# [34] = Plasma concentration in diet-induced obese C57BL/6J mouse at 0.3 mg/kg, po once daily for 14 days measured 24 hrs post last dose; format: ADME, organism-based
# [35] = Genotoxicity in Salmonella typhi by Ames test; format: toxicity; conditions: salmonella enterica subsp. enterica serovar […]
# [36] = Plasma concentration in diet-induced obese mouse at 1 mg/kg, po; format: ADME, organism-based; conditions: in vivo
# Mus musculus [37] = experiment: Antiobesity activity in diet-induced obese C57BL/6J mouse assessed as body weight loss at 3 mg/kg, po once daily for 14 days measured on day 15 (reference value: 3.74 +/- 0.6%); format: functional
# [38] = target: T1, Free fatty acid receptor 1; experiment: Agonist activity at GPR40 in human islets assessed as induction of glucose-stimulated insulin secretion after 1 hr by HTRF assay
# Mus musculus [39] = experiment: Antiobesity activity in diet-induced obese C57BL/6J mouse assessed as body weight loss at 10 mg/kg, po once daily for 14 days measured on day 15 (reference value: 3.74 +/- 0.6%); format: functional
# [40] = Plasma concentration in diet-induced obese C57BL/6J mouse at 10 mg/kg, po once daily for 14 days measured 24 hrs post last dose; format: ADME, organism-based
# [41] = target: T1, Free fatty acid receptor 1; experiment: Partial agonist activity at human GPR40 expressed in CHOK1 cells assessed as induction of GalphaS-mediated cAMP accumulation after 30 mins HTRF assay; format: functional, cell-based
# Rattus norvegicus [42] = experiment: Antiobesity activity in ZDF rat assessed as reduction in food intake at 10 mg/kg daily for 38 days relative to control; format: functional; parameters: scale not given: the % may be the effect or the level left
# Mus musculus [43] = experiment: Antidiabetic activity in diet-induced obese mouse assessed as reduction in blood glucose excursion at 10 mg/kg, po administered 45 mins prior to glucose challenge and measured up to 120 mins by OGTT; format: functional, organism-based
# Rattus norvegicus [44] = experiment: Antiobesity activity in ZDF rat assessed as body weight loss at 10 mg/kg daily for 38 days relative to control; format: functional
# Rattus norvegicus [45] = experiment: In vivo agonist activity at GPR40 in ZDF rat assessed as increase in plasma total GLP1 level at 10 mg/kg daily for 38 days relative to control; format: functional
# [46] = target: T1, Free fatty acid receptor 1; experiment: Agonist activity at GPR40 in human islets assessed as induction of glucose-stimulated insulin secretion at 10 uM after 1 hr by HTRF assay relative to (S)-3-Cyclopropyl-3-(3-(((1r,4S)-4-(2-fluoro-5-methoxyphenyl)cyclohexyl)methoxy)phenyl)propanoic acid
smiles,measurement,setting,value
COc1ccc(F)c([C@H]2CC[C@H](COc3cccc([C@H](C4CC4)[C@@](C)(F)C(=O)O)c3)CC2)c1,Activity,Mus musculus [1],3.15%
same,Activity,Mus musculus [2],Dose-dependent effect
same,minimal effective dose,"Mus musculus [2]; po, read-out: MED",3 mg/kg
same,inhibition (INH),[3],Not Active
same,Cmax,[4],495 ng/mL
same,EC50,[5],0.0031 to 0.0053 µM
same,Activity,[6],Active
same,"fraction unbound at 6 h, 10 µM",[7],< 0.001
same,Activity,Mus musculus [8],Dose-dependent effect
same,T1/2,[9],0.333 h
same,half-life,[10],4.3 h
same,concentration,[11],22 nM
same,T1/2,[12],3.3 min
same,half-life,[13],7.9 h
same,concentration,[14],870 nM
same,Drug metabolism,[15],1%
same,Activity,Cytochrome P450 [16],Not Active
same,bioavailability,[17],92.1%
same,EC50,[18],0.00025 µM
same,concentration at 24 h,[19],1290 nM
same,concentration,[20],3830 nM
same,inhibition (INH),Cytochrome P450 [21],Not Active
same,Stability,[22],73%
same,Vd,[23],3.2 L/kg
same,EC50,[24],0.00034 µM
same,Activity,Mus musculus [25],-6.84%
same,concentration at 24 h,[26],340 nM
same,concentration,[27],87 nM
same,Activity,[28],Active
same,Activity,Mus musculus [29],Dose-dependent effect
same,Activity,Mus musculus [30],1.05%
same,concentration,[31],7.4 nM
same,clearance,[32],17 mL/min/kg
same,concentration at 24 h,[33],391000 nM
same,concentration at 24 h,[34],100 nM
same,Activity,[35],Non-Toxic
same,concentration,[36],220 nM
same,Activity,Mus musculus [37],-2.56%
same,EC50,[38],0.0037 µM
same,Activity,Mus musculus [39],-10.07%
same,concentration at 24 h,[40],7050 nM
COc1ccc(F)c([C@H]2CC[C@H](COc3cccc([C@H](C4CC4)[C@@H](C)C(=O)O)c3)CC2)c1,EC50,[5],0.022 µM
same,EC50,[18],0.0022 µM
same,EC50,[24],0.0049 µM
COc1ccc(F)c([C@H]2CC[C@@H](COc3cccc([C@@H](CC(=O)O)C4CC4)c3)CC2)c1,Activity,[41],Active
COc1ccc(F)c([C@H]2CC[C@H](COc3cccc([C@H](C4CC4)C(C)(C)C(=O)O)c3)CC2)c1,EC50,[5],0.22 µM
same,EC50,[18],0.00011 µM
same,EC50,[24],0.00031 µM
COc1ccc(F)c([C@H]2CC[C@H](COc3cccc([C@H](C4CC4)[C@H](F)C(=O)O)c3)CC2)c1,EC50,[18],0.054 µM
same,EC50,[24],0.163 µM
same,Activity,[28],Active
COc1ccc(F)c([C@H]2CC[C@H](COc3cccc([C@@H](CC(=O)O)C4CC4)c3)CC2)c1,Activity,Rattus norvegicus [42],10%
same,Cmax,[4],18200 ng/mL
same,EC50,[5],0.199 µM
same,Activity,Mus musculus [43],Active
same,Activity,[6],Active
same,"fraction unbound at 6 h, 10 µM",[7],< 0.001
same,T1/2,[9],0.00233 h
same,half-life,[10],7.2 h
same,T1/2,[12],0.8 min
same,half-life,[13],9.1 h
same,Drug metabolism,[15],4%
same,bioavailability,[17],91.4%
same,EC50,[18],0.00094 µM
same,concentration,[20],98700 nM
same,Activity,Rattus norvegicus [44],6%
same,Stability,[22],56%
same,Vd,[23],0.2 L/kg
same,EC50,[24],0.0041 µM
same,Activity,[28],Active
same,fold change (FC),Rattus norvegicus [45],6.2
same,clearance,[32],0.4 mL/min/kg
same,EC50,[38],1.37 µM
COc1ccc(F)c([C@H]2CC[C@H](COc3cccc([C@H](C4CC4)C(F)(F)C(=O)O)c3)CC2)c1,EC50,[18],0.016 µM
same,EC50,[24],0.034 µM
COc1ccc(F)c([C@H]2CC[C@H](COc3cccc([C@H](C4CC4)[C@](C)(F)C(=O)O)c3)CC2)c1,EC50,[5],0.089 µM
same,Activity,[28],Active
COc1ccc(F)c([C@H]2CC[C@H](COc3cccc([C@H](C4CC4)[C@H](C)C(=O)O)c3)CC2)c1,Cmax,[4],1360 ng/mL
same,EC50,[5],0.002 µM
same,half-life,[10],4.8 h
same,half-life,[13],4.4 h
same,Drug metabolism,[15],5%
same,bioavailability,[17],45.5%
same,Stability,[22],45%
same,Vd,[23],0.9 L/kg
same,clearance,[32],8.1 mL/min/kg
Cc1cc(OCCCS(C)(=O)=O)cc(C)c1-c1cccc(COc2ccc3c(c2)OC[C@H]3CC(=O)O)c1,Efficacy,[46],40%
same,EC50,[24],0.039 µM
COc1ccc(F)c([C@H]2CC[C@H](COc3cccc([C@H](C4CC4)[C@@H](F)C(=O)O)c3)CC2)c1,Cmax,[4],3700 ng/mL
same,EC50,[5],0.02 µM
same,half-life,[10],4.7 h
same,half-life,[13],4.3 h
same,Drug metabolism,[15],7%
same,bioavailability,[17],73.8%
same,EC50,[18],0.0011 µM
same,Stability,[22],63%
same,Vd,[23],0.9 L/kg
same,EC50,[24],0.028 µM
same,Activity,[28],Active
same,clearance,[32],2.7 mL/min/kg
COc1ccc(F)c(-c2ccc(COc3cccc([C@@H](CC(=O)O)C4CC4)c3)cc2C2=CCCC2(C)C)c1,Activity,[5],Active
same,Activity,[28],Active
